Calls of active or inactive are those of the source.

These results are taken from ChEMBL document CHEMBL1201862, “PubChem BioAssay data set” (2004).

The subject of assay [1] is HEK293. The assay can be described thus: inhibition of NOD1-driven NF-kB reporter – cell-based, luminescence, uHTS, primary screen (AID 1578). In kind it is functional. To be noted: Homo sapiens.
In assay [2] the test system is HEK293. Description: cells. In kind it is functional, cell-based. To be noted: Homo sapiens.
Assay [3] deals with HEK293. The assay can be described thus: NOD2 signaling inhibitors in MDP-stimulated cells, cell-based, uHTS, luminescence (AID 2001). Format: functional. To be noted: Homo sapiens.
Assay [4] deals with HEK293. Description: cells. Format: functional, cell-based. To be noted: Homo sapiens. The source holds these as a separate data set.
Assay [5] addresses Nucleotide-binding oligomerization domain-containing protein 2 (Homo sapiens, UniProt Q9HC29). The assay can be described thus: inhibition of NOD2-driven NF-kB reporter – cell-based, luminescence, uHTS, HEK293 (AID 1566). Format: functional.
The subject of assay [6] is HEK293. The assay can be described thus: cells. Format: functional, cell-based. To be noted: Homo sapiens. This is another data set of the same source.
A short description of assay [7]: Luminescence Cell-Based Dose Retest to Confirm Inhibitors of Cancer Stem Cells. [Related pubchem assays (depositor defined):AID2717, AID2721]. Format: functional. To be noted: Homo sapiens.
A short description of assay [8]: HEK-293T cell viability reduction – luminescence, B-cell screen hits, cytotoxicity control for BCR NF-kB inhibitor project, dose response (AID 489021).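 Note: HEK-293T cells carrying an NF-kB luciferase reporter; cells exposed to compound for about 14 hours before viability readout.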 In kind it is functional, cell-based.
The target in assay [9] is G-protein coupled receptor 55 (Homo sapiens, UniProt Q9Y2T6). Description: selective activators of receptor GPR55 – imaging, U2OS cells, beta-arrestin-GFP redistribution, primary screen (AID 1961). In kind it is functional.
The target in assay [10] is T1, Ubiquitin-conjugating enzyme E2 N (Homo sapiens, UniProt P61088).
T1 sequence (P61088 whole entry): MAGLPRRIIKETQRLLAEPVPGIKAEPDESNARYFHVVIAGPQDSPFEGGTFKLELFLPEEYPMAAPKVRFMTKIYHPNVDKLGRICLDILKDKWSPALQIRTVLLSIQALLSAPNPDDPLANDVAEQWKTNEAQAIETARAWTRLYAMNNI
Format: functional.

Assay [11] deals with T2, Bcl-2-related protein A1 (Mus musculus, UniProt Q07440).
T2 sequence (Q07440 whole entry): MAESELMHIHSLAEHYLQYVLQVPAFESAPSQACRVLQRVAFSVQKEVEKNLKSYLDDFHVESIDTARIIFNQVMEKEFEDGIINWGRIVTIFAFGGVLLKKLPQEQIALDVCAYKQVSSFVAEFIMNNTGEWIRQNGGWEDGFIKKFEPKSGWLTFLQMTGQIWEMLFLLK
In kind it is functional.

Assay [12] deals with T1, Ubiquitin-conjugating enzyme E2 N. In kind it is functional. The source holds these as a separate data set.
Assay [13] deals with T3, Heat shock factor protein 1 (Mus musculus, UniProt P38532).
T3 sequence (P38532 whole entry): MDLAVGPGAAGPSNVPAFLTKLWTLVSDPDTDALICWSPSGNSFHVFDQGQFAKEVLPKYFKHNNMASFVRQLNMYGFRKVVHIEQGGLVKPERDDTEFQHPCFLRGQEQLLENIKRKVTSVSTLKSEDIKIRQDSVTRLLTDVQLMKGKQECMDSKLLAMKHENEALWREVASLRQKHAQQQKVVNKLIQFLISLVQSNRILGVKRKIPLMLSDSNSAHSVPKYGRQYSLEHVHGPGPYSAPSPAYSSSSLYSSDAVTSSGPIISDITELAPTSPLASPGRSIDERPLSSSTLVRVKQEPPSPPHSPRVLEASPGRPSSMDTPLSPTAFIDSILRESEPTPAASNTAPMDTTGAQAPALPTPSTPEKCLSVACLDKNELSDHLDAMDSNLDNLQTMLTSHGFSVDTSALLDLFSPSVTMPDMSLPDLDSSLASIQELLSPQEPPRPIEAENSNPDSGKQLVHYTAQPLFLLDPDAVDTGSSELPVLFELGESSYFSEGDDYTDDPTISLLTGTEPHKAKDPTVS
Description: decrease of HSF1-responsive luciferase luminescence – cell-based, NIH3T3, dose retest, confirmation (AID 2382).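 Note: NIH3T3 fibroblasts with HSF1-driven luciferase reporter stressed by proteasome inhibitor MG132; luminescence from HSF1-driven luciferase expression after 8 hours of MG132 stress.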 Format: functional.

Assay [14] in a line: Luminescence Cell-Based Dose Response HTS to Identify Inhibitors of 5'UTR Stem-Loop Driven Prion Protein mRNA Translation in H4 Neuroglioblastoma Cells. [Related pubchem assays: 1827 (Project Summary), 1813 (Primary HTS)]. Format: functional.
Assay [15] concerns HEK293. The assay can be described thus: EBV LMP1 TES2 canonical NF-kB signalling blockers – cell-based, HEK293, luciferase, cherry-pick, dose response (AID 588343). Format: functional. To be noted: Homo sapiens.
The nature of assay [16]: alpha-synuclein stem-loop luciferase translation blockers – H4 neuroglioma cells, luminescence, confirmation (AID 1988). In kind it is functional, cell-based.
A short description of assay [17]: luciferase reporter signal suppression in cells – H4 neuroglioma cells, luminescence, dose response (AID 1990). In kind it is functional, cell-based.
The target in assay [18] is T4, Bcl-2-like protein 10 (Homo sapiens, UniProt Q9HD36).
T4 sequence (Q9HD36 whole entry): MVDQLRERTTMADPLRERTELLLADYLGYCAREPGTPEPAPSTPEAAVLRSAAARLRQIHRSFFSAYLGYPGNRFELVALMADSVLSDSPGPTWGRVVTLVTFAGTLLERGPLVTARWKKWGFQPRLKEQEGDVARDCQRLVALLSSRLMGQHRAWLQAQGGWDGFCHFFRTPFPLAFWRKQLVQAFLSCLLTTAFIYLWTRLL
The assay can be described thus: Bcl-B/TR3 peptide binding disruption – biochemical, fluorescence polarization, FITC-TR3 peptide, selectivity assay for Bfl-1 inhibitor project, primary screen (AID 748).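 Note: fluorescence polarization from a fluorescein-labelled TR3 peptide binding purified Bcl-B.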 For orientation: In fluorescence polarisation assays a small probe gives low polarisation when free and higher when bound to something large.

Assay [19] concerns HEK293. The assay can be described thus: Fluorescence-based counterscreen for potentiators or agonists of NPY-Y2: cell-based high-throughput dose response assay to identify inhibitors of cyclic nucleotide gated ion channel (CNGC) activity. In this assay, the parental HEK293 cell line transfected with a cyclic-nucleotide gated ion channel (CNGC)-based cAMP sensor is used to measure inhibition of isoproterenol-induced CNGC activity by test compound. Format: functional. To be noted: Homo sapiens. A general note: The purpose of a counterscreen is to sort out artefacts and off-target activity.

Assay [20] deals with T5, Neuropeptide Y receptor type 2 (Homo sapiens, UniProt P49146).
T5 sequence (P49146 whole entry): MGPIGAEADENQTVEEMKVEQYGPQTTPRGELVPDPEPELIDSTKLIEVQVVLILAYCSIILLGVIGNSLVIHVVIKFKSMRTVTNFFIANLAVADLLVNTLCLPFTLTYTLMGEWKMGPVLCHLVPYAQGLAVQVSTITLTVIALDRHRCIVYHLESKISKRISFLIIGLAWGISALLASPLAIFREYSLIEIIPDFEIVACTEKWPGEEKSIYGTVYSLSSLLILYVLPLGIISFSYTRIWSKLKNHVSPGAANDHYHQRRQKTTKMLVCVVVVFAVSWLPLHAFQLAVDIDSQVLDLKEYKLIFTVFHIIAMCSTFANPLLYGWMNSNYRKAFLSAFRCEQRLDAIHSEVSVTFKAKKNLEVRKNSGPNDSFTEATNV
The assay can be described thus: Fluorescence-based cell-based high-throughput dose response assay for agonists of NPY-Y2. [Related pubchem assays: 1703 (Screening assay (CNGC inhibitors).), 1359 (Screening assay (NPY-Y2 potentiators or agonists).), 1304 (Screening assay (NPY-Y1 potentiators or agonists).), 1710 (Screening assay (NPY-Y2 agonists).), 1791 (Summary AID.)]. Format: functional.

The target of assay [21] is T6, Neuropeptide Y receptor type 1 (Homo sapiens, UniProt P25929).
T6 sequence (P25929 whole entry): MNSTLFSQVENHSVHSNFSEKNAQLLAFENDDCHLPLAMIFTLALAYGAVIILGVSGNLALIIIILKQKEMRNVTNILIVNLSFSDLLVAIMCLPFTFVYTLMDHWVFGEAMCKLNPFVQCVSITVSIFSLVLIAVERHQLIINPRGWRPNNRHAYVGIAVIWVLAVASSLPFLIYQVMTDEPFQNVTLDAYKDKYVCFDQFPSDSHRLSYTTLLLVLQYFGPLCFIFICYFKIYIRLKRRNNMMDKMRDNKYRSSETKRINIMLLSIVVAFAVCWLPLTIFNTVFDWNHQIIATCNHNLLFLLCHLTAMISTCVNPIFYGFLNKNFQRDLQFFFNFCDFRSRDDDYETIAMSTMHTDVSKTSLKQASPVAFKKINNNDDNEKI
Description: Fluorescence-based counterscreen for agonists of NPY-Y2: cell-based high-throughput dose response assay for agonists of NPY-Y1. In kind it is functional.

Nucleotide-binding oligomerization domain-containing protein 2, sequence (Q9HC29 whole entry, the tested form may be a part): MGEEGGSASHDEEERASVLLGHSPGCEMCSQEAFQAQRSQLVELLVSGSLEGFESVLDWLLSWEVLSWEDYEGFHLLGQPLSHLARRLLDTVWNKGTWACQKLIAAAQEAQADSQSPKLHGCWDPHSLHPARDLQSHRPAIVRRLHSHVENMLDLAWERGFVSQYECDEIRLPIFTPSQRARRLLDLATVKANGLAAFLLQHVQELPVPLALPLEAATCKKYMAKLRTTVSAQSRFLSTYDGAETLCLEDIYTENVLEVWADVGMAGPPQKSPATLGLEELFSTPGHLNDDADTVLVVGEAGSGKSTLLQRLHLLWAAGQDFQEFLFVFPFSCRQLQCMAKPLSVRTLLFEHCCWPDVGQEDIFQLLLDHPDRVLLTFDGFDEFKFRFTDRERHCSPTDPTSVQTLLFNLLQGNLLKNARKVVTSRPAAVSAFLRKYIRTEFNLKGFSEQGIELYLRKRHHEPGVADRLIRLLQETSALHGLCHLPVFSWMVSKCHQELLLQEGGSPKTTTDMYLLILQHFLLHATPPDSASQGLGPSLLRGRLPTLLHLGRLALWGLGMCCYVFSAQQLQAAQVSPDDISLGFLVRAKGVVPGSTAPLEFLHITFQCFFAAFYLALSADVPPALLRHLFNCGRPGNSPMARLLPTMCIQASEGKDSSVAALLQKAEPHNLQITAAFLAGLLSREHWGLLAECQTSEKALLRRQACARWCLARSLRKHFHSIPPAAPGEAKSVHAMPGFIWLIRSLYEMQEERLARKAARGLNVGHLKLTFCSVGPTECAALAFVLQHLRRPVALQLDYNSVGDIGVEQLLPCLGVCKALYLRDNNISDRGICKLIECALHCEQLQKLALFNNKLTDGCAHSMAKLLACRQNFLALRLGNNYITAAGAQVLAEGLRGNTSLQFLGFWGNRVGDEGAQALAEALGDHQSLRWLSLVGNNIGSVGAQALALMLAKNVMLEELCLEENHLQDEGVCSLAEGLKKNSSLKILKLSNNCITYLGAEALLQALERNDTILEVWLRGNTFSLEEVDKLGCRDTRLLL
G-protein coupled receptor 55, sequence (Q9Y2T6 whole entry): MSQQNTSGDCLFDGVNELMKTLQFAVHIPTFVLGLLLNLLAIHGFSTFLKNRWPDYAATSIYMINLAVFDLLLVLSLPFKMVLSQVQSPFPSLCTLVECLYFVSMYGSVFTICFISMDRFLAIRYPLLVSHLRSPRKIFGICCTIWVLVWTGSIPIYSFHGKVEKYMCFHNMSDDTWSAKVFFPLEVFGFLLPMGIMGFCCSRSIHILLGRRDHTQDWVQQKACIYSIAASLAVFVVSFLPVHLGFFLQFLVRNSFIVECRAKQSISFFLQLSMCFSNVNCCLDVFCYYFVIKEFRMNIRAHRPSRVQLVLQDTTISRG

Broadly, the EC50 is the concentration that produces a half-maximal response. As a reminder, the IC50 is the concentration at which inhibition is half-maximal. Consider `O=C(CCl)Nc1ccccc1Sc1ccc(Cl)cc1`, for which the concentration for a half-maximal effect (EC50) in [1] was 7.79 µM (active); in assay [5], 6.69 µM (active). The IC50 in assay [2] is > 20 µM (inactive); in [3], 9.91 µM (active); in assay [4] it was 4.56 µM (active); in assay [6], > 20 µM (inactive).

A word on the AC50: it is the midpoint of the concentration-response curve, whichever way the signal moves. As to `Cc1cc(C)cc(NC(=O)Nc2ccc(NC(=O)c3ccccc3O)cc2)c1`, the AC50 in [7] is 0.167 µM (active). Moreover, the IC50 in [8] was > 80 µM (inactive).

Take `Cc1ccc2c(Cl)cc(Cl)c(OCC(=O)Nc3ccc(C)c(S(=O)(=O)N(C)C)c3)c2n1`: in assay [9], the EC50 was > 32 µM (inactive).

Consider `Oc1[nH]c2ccccc2c1N=NC(S)=NCC1CCCO1` (stereo not drawn), for which the IC50 in [10] is 0.967 µM (active); in [11], > 20 µM (inactive); in assay [12], 1.73 µM (active). Also, the 50% effective concentration (EC50) in [13] was > 195 µM (not active).

Turning to `CCOC(=O)CNC(=O)CSc1nnc(NC(=O)c2ccc(C)cc2)s1`, the EC50 was 11 µM (active) in assay [14], 7.31 µM (active) in [16] and 9.66 µM (active) in assay [17]. Further, the IC50 in assay [8] was > 80 µM (inactive). Moreover, in [15], the AC50 is 1.65 µM (active).

For the compound `c1coc(C2Nc3cccc4cccc(c34)N2)c1`, the EC50 in [14], in assay [16] and in assay [17] was > 120 µM (not active) each time. Further, the IC50 in [18] is 42.8 µM (active).

On to `CCOC(=O)c1cc(-c2ccncc2)nc2c1c(C)nn2C`, for which the 50% inhibitory concentration (IC50) in [10] is 5.32 µM (active); in assay [11], > 20 µM (inactive); in assay [12], 11.3 µM (active).

Take `CC(SC(=S)N1CCCC1)C(=O)O` (stereo not drawn): the EC50 in assay [19], in assay [20] and in assay [21] was > 35.4 µM (not active) throughout.
